Assay results from publication PMC4698308, “A new amino acid substitution (Ala-205-Phe) in acetolactate synthase (ALS) confers broad spectrum resistance to ALS-inhibiting herbicides” (Planta, 2015).
Like-named read-outs stand apart in the source and are kept apart here.

Tests used:
[1] = target: T1, recombinant Arabidopsis thaliana ALS wild-type enzyme (WT—sensitive) (Arabidopsis thaliana, UniProt P17597); test: biochemical
T1 construct: Protein constructs contained an 85 amino acid N-terminal deletion (chloroplast transit peptide); Hexa-histidine tag (N); made in house
T1 sequence (P17597 86-670): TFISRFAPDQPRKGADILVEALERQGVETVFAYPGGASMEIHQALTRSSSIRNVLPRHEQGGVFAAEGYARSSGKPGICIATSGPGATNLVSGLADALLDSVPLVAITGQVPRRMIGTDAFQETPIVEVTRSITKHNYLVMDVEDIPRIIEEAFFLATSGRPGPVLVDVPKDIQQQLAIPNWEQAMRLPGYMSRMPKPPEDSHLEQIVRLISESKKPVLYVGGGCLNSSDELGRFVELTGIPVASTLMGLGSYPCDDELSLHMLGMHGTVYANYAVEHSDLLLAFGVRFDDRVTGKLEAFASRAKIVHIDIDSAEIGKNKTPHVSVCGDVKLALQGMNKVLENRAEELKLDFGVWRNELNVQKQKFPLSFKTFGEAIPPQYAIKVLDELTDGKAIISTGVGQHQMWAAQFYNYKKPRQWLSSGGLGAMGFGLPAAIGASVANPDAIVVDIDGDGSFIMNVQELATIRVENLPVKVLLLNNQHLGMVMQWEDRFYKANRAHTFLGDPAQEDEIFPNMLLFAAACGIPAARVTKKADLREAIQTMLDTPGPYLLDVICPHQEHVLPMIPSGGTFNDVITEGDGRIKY
Method: (§1) Effects of SNPs identified in sequencing analysis on ALS activity were studied using A. thaliana. The ALS gene from A. thaliana and derivatives thereof were de novo synthesized and subcloned into pET-24d(+) (Life Technologies. Grand Island, NY, USA) using NcoI and XhoI restriction sites. Protein constructs contained an 85 amino acid N-terminal deletion (chloroplast transit peptide) and the addition of an N-terminal Hexa-histidine tag to facilitate purification.
(§2) Lysis was performed by at least two passes through a fluidizer, followed by centrifuging at 80000×g for 30 min at 4 °C. […] Fractions containing ALS protein were pooled and stored at −20 °C.
(§3) Inhibitors, purchased from Sigma as Pestanal standards (Sigma-Aldrich, Deisenhofen, Germany), were dissolved in DMSO and added to the reaction mixture. Inhibitors evaluated included imidazolinone, sulfonylurea, triazolopyrimidines, sulfonylamino-carbonyl- triazolinones, and pyrimidinyl (thio) benzoate herbicides. The reaction mixture was incubated at 30 °C for 60 min and stopped with 70 µl of H2SO4 (3 M). The reaction was then heated to 56 °C for 15 min to convert acetolactate into acetoin. […] For each inhibitor, resistance factors were calculated by dividing IC50 values for mutant and sensitive ALS.

[2] = test system: recombinant Arabidopsis thaliana ALS variant W574L; type: biochemical; details: IC50 mutant divided by IC50 sensitive ALS; max inhibitor concentration 1.00 × 10^−04 M
Method: as §1, §2, §3

[3] = test system: recombinant Arabidopsis thaliana ALS variant A205F; type: biochemical; details: IC50 mutant divided by IC50 sensitive ALS; max inhibitor concentration 1.00 × 10^−04 M
Method: as §1, §2, §3

[4] = test system: recombinant Arabidopsis thaliana ALS variant A205V; type: biochemical; details: IC50 mutant divided by IC50 sensitive ALS; max inhibitor concentration 1.00 × 10^−04 M
Method: as §1, §2, §3

[5] = test system: annual bluegrass (Poa annua L.); test: Whole plant confirmation of target-site resistance (visual control and dry biomass 28 days after treatment); type: in vivo
Method: Progeny of all POAAN-R3 plants subjected to genetic sequencing (RP1–RP8) were surface seeded into separate 10.2 × 10.2 cm greenhouse pots (Dillen Products/Myers Industries, Inc. Middlefield, OH, USA.) filled with a peat moss growing medium (ProMix BX Mycorrhizae. Premier Tech Horticulture, Quakertown, PA, USA) on 5 January 2015. The susceptible annual bluegrass population (S) included in our sequencing analysis was also seeded in the same fashion.
After seeding, pots were placed inside a growth chamber (Conviron A1000. Controlled Environments Inc, Hendersonville, NC) configured to provide 14 h day at 19 °C and a 10 h night at 10 °C. Light intensity inside the chamber averaged 296 μmol m^−2 s^−1. Irrigation was applied to each pot daily using distilled water and a misting nozzle. Annual bluegrass emergence was first noted on 16 January 2015. Plants remained inside the growth chamber until 26 January 2015. On this date, seedlings of each plant (RP1–RP8, S) were transplanted into individual 164 cm^3 plastic conical containers (SC10 Super Cell Cone-tainer. Stuewe and Sons. Tangent, OR 97389) filled with Sequatchie silt loam (fine-loamy, siliceous, semiactive, thermic humic Hapludult) measuring 6.2 in soil pH and 2.1 % in organic matter content. Transplants were replicated such that 32 plastic conical containers were created for each annual bluegrass plant analyzed in previous experiments (RP1–RP8, S). Immediately after transplanting, plastic conical containers were placed in a glasshouse located at the University of Tennessee (Knoxville, TN, USA; 35.56, 83.56). Peak light intensity in this glasshouse averaged 714 μmol m^−2 s^−1 with day/night temperatures averaging 27/17 °C. Irrigation was applied daily using an overhead misting system and plants were not clipped prior to initiating this study.
Plants were allowed to acclimate to this glasshouse environment for 10 days prior to being treated with foramsulfuron (Revolver. Bayer Environmental Sciences. Research Triangle Park, NC, USA) at 29 g ha^−1, imazamox (Clearcast. BASF Corporation. Research Triangle Park, NC) at 140 g ha^−1, or simazine (Princep 4L. Syngenta Professional Products. Greensboro, NC) at 1120 g ha^−1. Per label recommendations, imazamox and simazine treatments included a non-ionic surfactant (Activator-90. Loveland Products Inc. Greeley, CO, USA) at 0.25 % v/v. All treatments were applied in an enclosed spray chamber (Generation III track sprayer. DeVries Manufacturing, Hollandale, MN, USA) using a water carrier at 215 L ha^−1 through an 8004 EVS nozzle (TeeJet, Technologies, Spraying Systems Co., Glendale Heights, IL, USA). These herbicide treatments were selected to confirm results of genetic sequencing that RP1–RP8 were resistant to sulfonylurea, imidazolinone, and photosystem II inhibiting herbicides. A non-treated control treatment was included with each resistant (RP1–RP8) and susceptible (S) plant for comparison. Herbicides were applied on 5 February 2015 when plants were at a two-to-three leaf stage, prior to annual bluegrass tiller formation.
Annual bluegrass control was visually assessed on a 0 (i.e., no control) to 100 % (i.e., complete kill) scale relative to the non-treated 28 days after treatment. After all control data had been collected, aboveground biomass was harvested from each plastic conical container at the soil line using scissors, dried at 100 °C for 3 days, and weighed.
Treatments were arranged as a 9 × 4 factorial with nine plant selections (i.e., RP1–RP8, S) and four herbicide treatments (i.e., foramsulfuron, imazamox, simazine, non-treated) in a completely randomized design with four replications and repeated in time and space during February 2015. Plants were the same age during both experimental runs.

[6] = concentration for 50 % inhibition of WT enzyme, max inhibitor concentration 1.00 × 10^−04 M, read-out: WT sensitivity [IC50]

Row | SMILES | IC50 [1, 6] [µM] | Resistance factor W574L [2] | Resistance factor A205F [3] | Resistance factor A205V [4] | IC50 [1] [µM] | further results
1 | COc1cc(OC)nc(NC(=O)NS(=O)(=O)c2cc(CNS(C)(=O)=O)ccc2C(=O)O)n1 [Mesosulfuron] | 0.00133 | 104 | 293 | 16 | – | –
2 | COc1cc(OC)nc(NC(=O)NS(=O)(=O)c2ncccc2C(=O)N(C)C)n1 [Nicosulfuron] | – | 35 | 1401 | 30 | 0.0714 | –
3 | COc1nn(C(=O)NS(=O)(=O)c2ccccc2OC(F)(F)F)c(=O)n1C [Flucarbazone] | 0.0245 | 7 | 441 | 2 | – | –
4 | COc1cc(OC)n2nc(S(=O)(=O)Nc3c(Cl)ccc(C)c3Cl)nc2n1 [Metosulam] | – | 107 | 1656 | 34 | 0.000441 | –
5 | COc1nc(NC(=O)NS(=O)(=O)c2ccccc2C(F)(F)F)nc(C(F)(F)F)n1 [Tritosulfuron] | 0.0187 | 167 | 5356 | 37 | – | –
6 | COCc1cnc(C2=NC(C)(C(C)C)C(=O)N2)c(C(=O)O)c1 (centres unmarked) [Imazamox] | – | 34 | – | 34 | 2.93 | annual bluegrass control, resistant plants with the exception of RP6 ([5]; 28 days after treatment, summary over RP1–RP5, RP7, RP8): ≤ 11%; Annual bluegrass biomass RP1 ([5]; RP1, aboveground dry biomass 28 days after treatment, foramsulfuron 29, imazamox 140, simazine 1120 g ha^-1): 84 % of nontreated control; Annual bluegrass control RP1 ([5]; RP1 plants, 28 days after treatment, 2 to 3 leaf stage, foramsulfuron 29, imazamox 140, simazine 1120 g ha^−1): 2%; Annual bluegrass biomass RP2 ([5]; RP2, aboveground dry biomass 28 days after treatment, foramsulfuron 29, imazamox 140, simazine 1120 g ha^-1): 66 % of nontreated control; Annual bluegrass control RP2 ([5]; RP2 plants, 28 days after treatment, 2 to 3 leaf stage, foramsulfuron 29, imazamox 140, simazine 1120 g ha^−1): 0%; Annual bluegrass biomass RP3 ([5]; RP3, aboveground dry biomass 28 days after treatment, foramsulfuron 29, imazamox 140, simazine 1120 g ha^-1): 94 % of nontreated control; Annual bluegrass control RP3 ([5]; RP3 plants, 28 days after treatment, 2 to 3 leaf stage, foramsulfuron 29, imazamox 140, simazine 1120 g ha^−1): 0%; Annual bluegrass biomass RP4 ([5]; RP4, aboveground dry biomass 28 days after treatment, foramsulfuron 29, imazamox 140, simazine 1120 g ha^-1): 55 % of nontreated control; Annual bluegrass control RP4 ([5]; RP4 plants, 28 days after treatment, 2 to 3 leaf stage, foramsulfuron 29, imazamox 140, simazine 1120 g ha^−1): 0%; Annual bluegrass biomass RP5 ([5]; RP5, aboveground dry biomass 28 days after treatment, foramsulfuron 29, imazamox 140, simazine 1120 g ha^-1): 49 % of nontreated control; Annual bluegrass control RP5 ([5]; RP5 plants, 28 days after treatment, 2 to 3 leaf stage, foramsulfuron 29, imazamox 140, simazine 1120 g ha^−1): 3%; Annual bluegrass biomass RP6 ([5]; RP6, aboveground dry biomass 28 days after treatment, foramsulfuron 29, imazamox 140, simazine 1120 g ha^-1): 70 % of nontreated control; Annual bluegrass control RP6 ([5]; RP6 plants, 28 days after treatment, 2 to 3 leaf stage, foramsulfuron 29, imazamox 140, simazine 1120 g ha^−1): 16%; Annual bluegrass biomass RP7 ([5]; RP7, aboveground dry biomass 28 days after treatment, foramsulfuron 29, imazamox 140, simazine 1120 g ha^-1): 87 % of nontreated control; Annual bluegrass control RP7 ([5]; RP7 plants, 28 days after treatment, 2 to 3 leaf stage, foramsulfuron 29, imazamox 140, simazine 1120 g ha^−1): 4%; Annual bluegrass biomass RP8 ([5]; RP8, aboveground dry biomass 28 days after treatment, foramsulfuron 29, imazamox 140, simazine 1120 g ha^-1): 86 % of nontreated control; Annual bluegrass control RP8 ([5]; RP8 plants, 28 days after treatment, 2 to 3 leaf stage, foramsulfuron 29, imazamox 140, simazine 1120 g ha^−1): 0%; Annual bluegrass control S ([5]; susceptible (S) plants, 28 days after treatment, 2 to 3 leaf stage, foramsulfuron 29, imazamox 140, simazine 1120 g ha^−1): 93%; Annual bluegrass biomass S ([5]; susceptible (S), aboveground dry biomass 28 days after treatment, foramsulfuron 29, imazamox 140, simazine 1120 g ha^-1): 3 % of nontreated control
7 | COc1cc(OC)nc(Oc2cccc(Oc3nc(OC)cc(OC)n3)c2C(=O)O)n1 [Bispyribac] | 0.00158 | 7944 | 7 | 11 | – | –
8 | COc1cc(OC)nc(Sc2cccc3c2C(=O)OC3C)n1 (centres unmarked) [Pyriftalid] | 20 | 5 | 5 | 5 | – | –
9 | COc1cc(OC)nc(Sc2cccc(Cl)c2C(=O)O)n1 [Pyrithiobac] | – | 134,838 | 306 | 433 | 0.000742 | –
10 | COc1nn(C(=O)NS(=O)(=O)c2c(C(=O)O)csc2C)c(=O)n1C [Thiencarbazone] | 0.0248 | 16 | 62 | 8 | – | –
11 | CCCOc1nn(C(=O)[N-]S(=O)(=O)c2ccccc2C(=O)OC)c(=O)n1C.[Na+] [Propoxycarbazone] | – | 309 | 1185 | 20 | – | –
12 | COc1ncc(F)c2nc(S(=O)(=O)Nc3c(F)cccc3F)nn12 [Florasulam] | 0.00343 | 370 | 1 | 89 | – | –
